Where a name gives a salt, the structure may show the parent alone.

The data set can be described thus: Solubility of drug substance in the compositions as a function of temperature. It counts as physicochemical. The following applies: in the compositions of the invention.

Regarding `C=C[C@@H]1C[C@]1(NC(=O)[C@@H]1C[C@@H](Oc2cc(-c3csc(NC(=O)C(C)C)n3)nc3c(Br)c(OC)ccc23)CN1C(=O)[C@@H](NC(=O)OC1CCCC1)C(C)(C)C)C(=O)O` [Compound (1) sodium salt], the “solubility (temperature dependence)” value is given as “increases as the temperature decreases”.
